In ChEMBL document CHEMBL1201862, “PubChem BioAssay data set” (2004):
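Where inhibition never reached the appropriate level, the endpoint shown equals the highest concentration tested. Otherwise, values were interpolated linearly from a five-concentration, 48-hour dose response in 96-well plates. At the GI50, growth is halved.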 Calls of active or inactive are those of the source. Cut-off read from the data, not from the text of the source: active = GI50 up to about 1.1 µM and inactive = higher.

Legend:
Test in all cases: DTP human tumour cell line panel, 48 h
SK-OV-3 = tested on: SK-OV-3
HT-29 = tested on: HT-29
SR = tested on: SR
SNB-75 = tested on: SNB-75
HOP-92 = tested on: HOP-92
UACC-62 = tested on: UACC-62
ACHN = tested on: ACHN
A549 = tested on: A549
MDA-N = tested on: MDA-N
KM12 = tested on: KM12
T47D = tested on: T47D
EKVX = tested on: EKVX
MDA-MB-231 = tested on: MDA-MB-231
SK-MEL-28 = tested on: SK-MEL-28
COLO 205 = tested on: COLO 205
BT-549 = tested on: BT-549
NCI-H522 = tested on: NCI-H522
SF-268 = tested on: SF-268
K562 = tested on: K562

Measured: GI50

CSC(CC(=O)O)C(=O)O (centres undefined)
inactive: SK-OV-3 > 100 µM | HT-29 > 100 µM | SR > 100 µM | SNB-75 > 100 µM | HOP-92 > 100 µM | UACC-62 > 100 µM | ACHN > 100 µM | A549 > 100 µM | MDA-N > 100 µM | KM12 > 100 µM | T47D > 100 µM | EKVX > 100 µM | MDA-MB-231 > 100 µM | SK-MEL-28 > 100 µM | COLO 205 > 100 µM | BT-549 > 100 µM | NCI-H522 > 100 µM | SF-268 > 100 µM

COc1ccc(CNc2ccn(C3OC(CO)C(O)C3O)c(=O)n2)cc1 (centres undefined)
inactive: SK-OV-3 > 100 µM | HT-29 46.3 µM | SR > 100 µM | HOP-92 47.1 µM | UACC-62 74.5 µM | ACHN > 100 µM | A549 > 100 µM | MDA-N 49.9 µM | KM12 45.9 µM | T47D 25.4 µM | EKVX 73.5 µM | MDA-MB-231 > 100 µM | SK-MEL-28 > 100 µM | COLO 205 > 100 µM | BT-549 62.5 µM | K562 34.8 µM | NCI-H522 70.1 µM | SF-268 > 100 µM

Cc1cc(O)cc2c1c(=O)c1ccccc1n2C
inactive: SK-OV-3 75.2 µM | HT-29 > 100 µM | SR 48.5 µM | SNB-75 87.5 µM | HOP-92 39.4 µM | UACC-62 > 100 µM | ACHN 89.7 µM | A549 > 100 µM | MDA-N > 100 µM | KM12 > 100 µM | T47D 73.5 µM | EKVX > 100 µM | MDA-MB-231 > 100 µM | COLO 205 > 100 µM | BT-549 50.6 µM | NCI-H522 34.8 µM | SF-268 31.7 µM

CCOP(=O)(OCC)C(NC(=O)C(C(F)(F)F)C(F)(F)F)c1ccccc1 (centres undefined)
inactive: SK-OV-3 > 100 µM | HT-29 > 100 µM | SR 59.6 µM | SNB-75 > 100 µM | HOP-92 > 100 µM | UACC-62 > 100 µM | ACHN > 100 µM | A549 > 100 µM | MDA-N > 100 µM | KM12 > 100 µM | T47D 84.1 µM | EKVX > 100 µM | MDA-MB-231 > 100 µM | SK-MEL-28 > 100 µM | COLO 205 > 100 µM | BT-549 > 10 µM | K562 61.2 µM | SF-268 > 100 µM

CN(C)c1ccc(/C=N\NC(=O)c2ccccc2Nc2ccccc2C(=O)N/N=C/c2ccc(N(C)C)cc2)cc1
inactive: SK-OV-3 > 100 µM | HT-29 > 100 µM | SR > 100 µM | SNB-75 > 100 µM | HOP-92 > 100 µM | UACC-62 > 100 µM | ACHN > 100 µM | A549 > 100 µM | MDA-N > 100 µM | KM12 > 100 µM | T47D > 100 µM | EKVX > 100 µM | MDA-MB-231 23.3 µM | SK-MEL-28 90.4 µM | COLO 205 97.5 µM | BT-549 > 100 µM | K562 > 100 µM | SF-268 > 100 µM

NC(CCP(=O)(O)O)C(=O)O (centres undefined)
inactive: HT-29 > 100 µM | SR > 100 µM | HOP-92 > 100 µM | UACC-62 > 100 µM | ACHN > 100 µM | A549 > 100 µM | MDA-N > 100 µM | KM12 > 100 µM | T47D > 100 µM | EKVX > 100 µM | MDA-MB-231 > 100 µM | SK-MEL-28 > 100 µM | BT-549 > 100 µM | K562 > 100 µM | NCI-H522 > 100 µM | SF-268 > 100 µM

Cn1c(-c2ccccc2)cc2c3ccsc3c3ccsc3c21
inactive: SK-OV-3 > 100 µM | HT-29 > 100 µM | SR 39.1 µM | SNB-75 > 100 µM | HOP-92 > 100 µM | UACC-62 > 100 µM | ACHN > 100 µM | A549 > 100 µM | MDA-N > 100 µM | KM12 16.1 µM | T47D 6.03 µM | MDA-MB-231 > 100 µM | SK-MEL-28 > 100 µM | COLO 205 > 100 µM | BT-549 > 100 µM | NCI-H522 > 100 µM | SF-268 > 100 µM

CC(C)(C)OC(=O)NC(CCCCNC(=O)OCc1ccccc1)C(=O)NCCNc1ccc(NCCNC(=O)C(CCCCNC(=O)OCc2ccccc2)NC(=O)OC(C)(C)C)c2c1C(=O)c1ccccc1C2=O (centres undefined)
inactive: SK-OV-3 25.4 µM | HT-29 > 100 µM | SR 24.3 µM | SNB-75 15.3 µM | HOP-92 > 42.3 µM | UACC-62 23 µM | ACHN > 100 µM | A549 > 100 µM | MDA-N 26.4 µM | KM12 25.6 µM | T47D 5.11 µM | EKVX > 100 µM | MDA-MB-231 5.85 µM | SK-MEL-28 14.7 µM | COLO 205 27.2 µM | BT-549 > 71 µM | NCI-H522 10.3 µM | SF-268 > 31.8 µM

CC(C)(C)OC(=O)NCC(=O)N1CCN(C(=O)CNC(=O)OC(C)(C)C)CC1
inactive: SK-OV-3 > 100 µM | HT-29 > 100 µM | SR > 100 µM | HOP-92 > 100 µM | UACC-62 > 100 µM | ACHN > 100 µM | A549 > 100 µM | MDA-N > 100 µM | KM12 > 100 µM | T47D > 100 µM | EKVX > 100 µM | MDA-MB-231 > 100 µM | SK-MEL-28 > 100 µM | COLO 205 > 100 µM | BT-549 > 100 µM | K562 > 100 µM | NCI-H522 2.55 µM | SF-268 18.7 µM

COC(=O)/C=C1/OC(c2ccc(C)cc2C)=CC1=O
inactive: SK-OV-3 18.7 µM | HT-29 5.18 µM | SR 3.4 µM | SNB-75 12.9 µM | HOP-92 16.6 µM | UACC-62 10.6 µM | ACHN 15.8 µM | MDA-N 15.2 µM | KM12 17.6 µM | T47D 20.1 µM | EKVX 65 µM | MDA-MB-231 14.3 µM | SK-MEL-28 19.5 µM | COLO 205 16.6 µM | BT-549 16.3 µM | K562 2.81 µM | NCI-H522 14.1 µM | SF-268 17.8 µM

Cn1c(-c2ccc(C=O)o2)ccc1-c1ccc(C=O)o1
inactive: SK-OV-3 > 100 µM | HT-29 36.1 µM | SR 30.9 µM | SNB-75 39.5 µM | HOP-92 36.6 µM | UACC-62 74.1 µM | ACHN 31.7 µM | A549 > 100 µM | MDA-N 33.4 µM | KM12 36.2 µM | T47D 26.1 µM | EKVX 54.1 µM | MDA-MB-231 38 µM | SK-MEL-28 40.1 µM | COLO 205 87.7 µM | BT-549 55.8 µM | K562 35.5 µM | NCI-H522 1.68 µM

COC(=O)C1=Nc2c(C)nn(-c3ccccc3)c2N=C(c2ccc([N+](=O)[O-])cc2)C1
inactive: SK-OV-3 > 10 µM | HT-29 > 10 µM | SR > 10 µM | SNB-75 > 10 µM | HOP-92 > 10 µM | UACC-62 > 10 µM | ACHN > 10 µM | A549 > 10 µM | MDA-N > 10 µM | KM12 > 10 µM | T47D > 10 µM | MDA-MB-231 > 10 µM | SK-MEL-28 > 10 µM | COLO 205 > 10 µM | BT-549 > 10 µM | K562 > 10 µM | NCI-H522 > 10 µM | SF-268 > 10 µM

CC(=O)N1N=C(c2ccccc2Nc2ccccc2C2=NN(C(C)=O)C(c3ccccc3)O2)OC1c1ccccc1 (centres undefined)
inactive: SK-OV-3 30.3 µM | HT-29 25.5 µM | SR > 100 µM | HOP-92 93.8 µM | UACC-62 35 µM | ACHN 86.5 µM | A549 17.4 µM | MDA-N 29 µM | T47D > 100 µM | EKVX 45.4 µM | MDA-MB-231 > 100 µM | SK-MEL-28 > 100 µM | COLO 205 18.6 µM | BT-549 87.5 µM | K562 30.7 µM | NCI-H522 36.1 µM

COc1ccccc1N1CCN(CCCCNC(=O)c2ccc([N+](=O)[O-])o2)CC1
inactive: SK-OV-3 15.9 µM | HT-29 2.74 µM | SR 5.61 µM | HOP-92 16.6 µM | UACC-62 5.93 µM | ACHN 11.7 µM | A549 6.98 µM | MDA-N 3.18 µM | KM12 5.53 µM | T47D 14.3 µM | EKVX 16 µM | MDA-MB-231 23.6 µM | SK-MEL-28 25.1 µM | COLO 205 2.38 µM | BT-549 4.19 µM | K562 12.4 µM | NCI-H522 2.69 µM | SF-268 16.7 µM

C#CCOC(=O)c1ccc(OC(C)=O)cc1
inactive: SK-OV-3 > 100 µM | SR > 100 µM | SNB-75 > 100 µM | HOP-92 > 100 µM | UACC-62 > 100 µM | ACHN > 100 µM | MDA-N > 100 µM | KM12 > 100 µM | T47D > 100 µM | EKVX > 100 µM | MDA-MB-231 > 100 µM | COLO 205 > 100 µM | BT-549 > 100 µM | K562 > 100 µM | NCI-H522 > 100 µM | SF-268 > 100 µM

Cc1c(/N=N/c2ccc(Cl)cc2)c(-c2ccccc2)n(C2OC(CO)C(O)C(O)C2O)c(=S)c1C#N (centres undefined)
inactive: SK-OV-3 16.9 µM | HT-29 16.6 µM | SR 20.6 µM | SNB-75 18.7 µM | HOP-92 14.2 µM | UACC-62 13.4 µM | ACHN 16 µM | A549 17.3 µM | MDA-N 18.2 µM | KM12 16.8 µM | T47D 19.1 µM | MDA-MB-231 20.3 µM | SK-MEL-28 15.4 µM | COLO 205 21.2 µM | BT-549 16 µM | K562 13.6 µM | SF-268 22.2 µM
